Read-outs that look alike come from different tables or passages of the source.
How the values were obtained:
SF-539 = conditions: SF-539, CNS, NCI database, cited from earlier work; for CC50: read-out: LC50 (the source's name)
SF-268 = conditions: SF-268, CNS, NCI database, cited from earlier work; for CC50: read-out: LC50 (the source's name)
HOP-92 [1] = conditions: HOP-92, Non-Small Cell Lung, NCI database, cited from earlier work; for CC50: read-out: LC50 (the source's name)
A549/ATCC [2] = conditions: Non-Small Cell Lung, NCI database, cited from earlier work; for CC50: read-out: LC50 (the source's name)
MDA-N = conditions: Breast, NCI database, cited from earlier work; for CC50: read-out: LC50 (the source's name)
MOLT-4 = conditions: MOLT-4, Leukemia, NCI database, cited from earlier work; for CC50: read-out: LC50 (the source's name)
NCI-H522 = conditions: NCI-H522, Non-Small Cell Lung, NCI database, cited from earlier work; for CC50: read-out: LC50 (the source's name)
RPMI-8226 = conditions: RPMI-8226, Leukemia, NCI database, cited from earlier work; for CC50: read-out: LC50 (the source's name)
SK-MEL-28 = conditions: SK-MEL-28, Melanoma, NCI database, cited from earlier work; for CC50: read-out: LC50 (the source's name)
DU-145 = conditions: DU-145, Prostate, NCI database, cited from earlier work; for CC50: read-out: LC50 (the source's name)
PC-3 = conditions: PC-3, Prostate, NCI database, cited from earlier work; for CC50: read-out: LC50 (the source's name)
OVCAR-4 = conditions: OVCAR-4, Ovarian, NCI database, cited from earlier work; for CC50: read-out: LC50 (the source's name)
SK-MEL-2 = conditions: SK-MEL-2, Melanoma, NCI database, cited from earlier work; for CC50: read-out: LC50 (the source's name)
HOP-62 = conditions: HOP-62, Non-Small Cell Lung, NCI database, cited from earlier work; for CC50: read-out: LC50 (the source's name)
LOX IMVI [3] = conditions: Melanoma, NCI database, cited from earlier work; for CC50: read-out: LC50 (the source's name)
OVCAR-5 = conditions: OVCAR-5, Ovarian, NCI database, cited from earlier work; for CC50: read-out: LC50 (the source's name)
HCT-116 = conditions: for CC50: read-out: LC50
LOX IMVI [4] = system: LOX IMVI
OVCAR-8 = conditions: for CC50: read-out: LC50
MDA-MB-435 = conditions: for CC50: read-out: LC50
A549/ATCC [5] = conditions: for CC50: read-out: LC50
HOP-92 [6] = conditions: for CC50: read-out: LC50
M14 = conditions: for CC50: read-out: LC50
MDA-MB-231/ATCC = conditions: for CC50: read-out: LC50
K-562 = conditions: for CC50: read-out: LC50
[7] = Homo sapiens, 48 h, read-out: LC50
[8] = A549/ATCC, Non-Small Cell Lung, 48 h
[9] = HOP-92, Non-Small Cell Lung, 48 h

## Sc1ncnc2nc[nH]c12 [6-MP, 6-mercaptopurine]
SF-539
  GI50: 2.38 µM
  TGI: >100 µM
  CC50: > 100 µM
SF-268
  GI50: 4.03 µM
  TGI: >100 µM
  CC50: > 100 µM
HOP-92 [1]
  GI50: 2.6 µM
  TGI: >100 µM
  CC50: > 100 µM
A549/ATCC [2]
  CC50: > 100 µM
  GI50: 27.7 µM
  TGI: >100 µM
MDA-N
  CC50: > 100 µM
  GI50: 1.5 µM
  TGI: >100 µM
MOLT-4
  GI50: 1.51 µM
  TGI: >100 µM
  CC50: > 100 µM
NCI-H522
  GI50: 1.67 µM
  TGI: >100 µM
  CC50: > 100 µM
RPMI-8226
  GI50: 1.75 µM
  TGI: >100 µM
  CC50: > 100 µM
SK-MEL-28
  GI50: > 100 µM
  TGI: >100 µM
  CC50: > 100 µM
DU-145
  GI50: 1.73 µM
  TGI: >100 µM
  CC50: > 100 µM
PC-3
  GI50: 3.81 µM
  TGI: >100 µM
  CC50: > 100 µM
OVCAR-4
  GI50: 7.11 µM
  TGI: >100 µM
  CC50: > 100 µM
SK-MEL-2
  GI50: 5.81 µM
  TGI: >100 µM
  CC50: > 100 µM
HOP-62
  GI50: 1.69 µM
  TGI: >100 µM
  CC50: > 100 µM
LOX IMVI [3]
  CC50: > 100 µM
  GI50: 0.35 µM
  TGI: >100 µM
OVCAR-5
  GI50: 7.85 µM
  TGI: >100 µM
  CC50: > 100 µM

## Nc1nc2nc[nH]c2c(=S)[nH]1 [6-TG, 6-thioguanine]
SF-539
  GI50: 1.02 µM
  TGI: 68.4 µM
  CC50: > 100 µM
SF-268
  GI50: 1.14 µM
  TGI: >100 µM
  CC50: > 100 µM
HOP-92 [1]
  GI50: 0.73 µM
  TGI: 24.0 µM
  CC50: > 100 µM
A549/ATCC [2]
  CC50: > 100 µM
  GI50: 3.48 µM
  TGI: >100 µM
MDA-N
  CC50: > 100 µM
  GI50: 1.01 µM
  TGI: 26.4 µM
MOLT-4
  GI50: 0.27 µM
  TGI: 15.4 µM
  CC50: > 100 µM
NCI-H522
  GI50: 0.91 µM
  TGI: 6.28 µM
  CC50: > 100 µM
RPMI-8226
  GI50: 0.39 µM
  TGI: 20.9 µM
  CC50: > 100 µM
SK-MEL-28
  GI50: 8.91 µM
  TGI: >100 µM
  CC50: > 100 µM
DU-145
  GI50: 0.78 µM
  TGI: >100 µM
  CC50: > 100 µM
PC-3
  GI50: 1.77 µM
  TGI: >100 µM
  CC50: > 100 µM
OVCAR-4
  GI50: 1.49 µM
  TGI: 99.5 µM
  CC50: > 100 µM
SK-MEL-2
  GI50: 0.92 µM
  TGI: 10.5 µM
  CC50: > 100 µM
HOP-62
  GI50: 0.73 µM
  TGI: 28.4 µM
  CC50: > 100 µM
LOX IMVI [3]
  CC50: > 100 µM
  GI50: 0.21 µM
  TGI: 8.99 µM
OVCAR-5
  GI50: 0.65 µM
  TGI: 47.5 µM
  CC50: > 100 µM

## CC(=O)C=CSc1ncnc2nc[nH]c12 [cis-AVTP, 6-(2-acetylvinylthio) purine]
HCT-116; HCT-116, Colon, 48 h
  TGI: 1.89 µM
HCT-116; Homo sapiens, HCT-116, 48 h
  GI50: 0.51 µM
  CC50: 4.73 µM
SR; Homo sapiens, 48 h
  GI50: 0.17 µM
SR; [7]
  CC50: > 100 µM
SR; Leukemia, 48 h
  TGI: >100 µM
LOX IMVI [4]; Homo sapiens, 48 h
  GI50: 0.03 µM
LOX IMVI [4]; [7]
  CC50: > 100 µM
LOX IMVI [4]; Melanoma, 48 h
  TGI: 2.23 µM
OVCAR-8; Homo sapiens, OVCAR-8, 48 h
  GI50: 1.53 µM
  CC50: > 100 µM
OVCAR-8; OVCAR-8, Ovarian, 48 h
  TGI: 5.93 µM
MDA-MB-435; Homo sapiens, MDA-MB-435, 48 h
  GI50: 0.56 µM
  CC50: 9.8 µM
MDA-MB-435; MDA-MB-435, Breast, 48 h
  TGI: 2.75 µM
A549/ATCC [5]; [8]
  TGI: 24.3 µM
A549/ATCC [5]; Homo sapiens, A549, 48 h
  GI50: 6.94 µM
  CC50: 69.5 µM
HOP-92 [6]; [9]
  TGI: 5.45 µM
HOP-92 [6]; Homo sapiens, HOP-92, 48 h
  GI50: 1.69 µM
  CC50: 32.9 µM
M14; Homo sapiens, M14, 48 h
  GI50: 0.07 µM
  CC50: 7.75 µM
M14; M14, Melanoma, 48 h
  TGI: 1.89 µM
MDA-MB-231/ATCC; Homo sapiens, MDA-MB-231, 48 h
  GI50: 1.27 µM
  CC50: > 100 µM
MDA-MB-231/ATCC; MDA-MB-231/ATCC, Breast, 48 h
  TGI: 4.56 µM
K-562; Homo sapiens, K562, 48 h
  GI50: 0.09 µM
  CC50: > 100 µM
K-562; K-562, Leukemia, 48 h
  TGI: >100 µM

## CC(=O)C=CSc1nc(N)nc2nc[nH]c12 [trans-AVTG, 6-(2-acetylvinylthio) guanine]
HCT-116; HCT-116, Colon, 48 h
  GI50: 0.67 µM
  TGI: 3.01 µM
  CC50: 14.7 µM
SR; Leukemia, 48 h
  GI50: 0.09 µM
  TGI: 10.2 µM
SR; read-out: LC50, Leukemia, 48 h
  CC50: > 100 µM
LOX IMVI [4]; Melanoma, 48 h
  GI50: 0.2 µM
  TGI: 2.39 µM
LOX IMVI [4]; read-out: LC50, Melanoma, 48 h
  CC50: 82.5 µM
OVCAR-8; OVCAR-8, Ovarian, 48 h
  GI50: 0.55 µM
  TGI: >100 µM
  CC50: > 100 µM
MDA-MB-435; MDA-MB-435, Breast, 48 h
  GI50: 1.04 µM
  TGI: 12.9 µM
  CC50: 51.5 µM
A549/ATCC [5]; [8]
  GI50: 5.75 µM
  TGI: 32.8 µM
  CC50: > 100 µM
HOP-92 [6]; [9]
  GI50: 3.01 µM
  TGI: 19.4 µM
  CC50: 50 µM
M14; M14, Melanoma, 48 h
  GI50: 0.45 µM
  TGI: 12.0 µM
  CC50: 53.5 µM
MDA-MB-231/ATCC; MDA-MB-231/ATCC, Breast, 48 h
  GI50: 0.89 µM
  TGI: 23.6 µM
  CC50: > 100 µM
K-562; K-562, Leukemia, 48 h
  GI50: 0.5 µM
  TGI: >100 µM
  CC50: > 100 µM
